Like-named read-outs stand apart in the source and are kept apart here.
Experiments:
recombinant human WRN = target: T1, recombinant human WRN (Homo sapiens, UniProt Q14191); assay: Inhibition of WRN enzyme activity (ATPase), ADP-Glo Kinase Assay; assay type: biochemical; conditions: WRN protein 5 nM, Flap 0.1 nM, ATP 30 µM
T1 construct: purchased BPS 101264
Method in brief: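 Recombinant human WRN (5 nM) was preincubated with compound (1000–0.004 nM) for 15 min at room temperature. Flap26 5'-flap DNA (0.1 nM) and 30 µM ATP were then added for 10 min in Tris pH 7.5, MgCl2, NaCl, BSA, Pluronic buffer. ADP was detected by ADP-Glo luminescence, and IC50 was obtained by nonlinear regression versus a 0.1% DMSO control.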

RL95-2 cells = assay: Inhibition of RL95-2 cell proliferation (CellTiter-Glo); assay type: cell-based; conditions: Homo sapiens; RL95-2 cells (MSI-H), 120 hours
Protocol: The following method was used to determine the effect of the compounds of the present disclosure on RL95-2 cell proliferation. RL95-2 cells (MSI-H cells) were purchased from Cell Resource Center of Shanghai Institutes for Biological Sciences, Chinese Academy of Sciences, and cultured in DMEM/F12 medium (Gibco, catalog No. A4192001) containing 10% fetal bovine serum, 100 U penicillin, and 100 µg/mL streptomycin. Cell viability was determined by CellTiter-Glo® Luminescent Cell Viability Assay kit (Promega, catalog No. G7573).
The experiment was performed according to the steps of the kit manual, which is briefly described as follows: test compounds were first dissolved in DMSO to prepare 10 mM stock solutions, and then diluted with medium to prepare test samples, with final compound concentrations ranging from 10000 nM to 1.52 nM. Cells in logarithmic growth phase were seeded into 96-well cell culture plates at a density of 500 cells per well and cultured overnight at 37 °C in a 5% CO2 incubator, and then test compounds were added and cultivation continued for 120 hours. After the cultivation was completed, 50 µL of CellTiter-Glo detection reagent was added to each well, shaken for 5 minutes, and then left to stand for 10 minutes. Luminescence values of each well were read on a microplate reader using Luminescence mode. The percentage inhibition at each concentration point was calculated by comparison with the control group (0.1% DMSO), and then IC50 values for the compounds for inhibition of cell proliferation were obtained using nonlinear regression analysis of compound concentration logarithm versus inhibition rate in GraphPad Prism 9 software, as shown in Table 3.
The IC50 value results of the compounds of the present disclosure are represented by A, wherein "A" indicates 1 nM < IC50 ≤ 100 nM. Table 3 IC50 data for inhibition of RL95-2 cell proliferation by the compounds of the present disclosure

T1 sequence (Q14191 whole entry): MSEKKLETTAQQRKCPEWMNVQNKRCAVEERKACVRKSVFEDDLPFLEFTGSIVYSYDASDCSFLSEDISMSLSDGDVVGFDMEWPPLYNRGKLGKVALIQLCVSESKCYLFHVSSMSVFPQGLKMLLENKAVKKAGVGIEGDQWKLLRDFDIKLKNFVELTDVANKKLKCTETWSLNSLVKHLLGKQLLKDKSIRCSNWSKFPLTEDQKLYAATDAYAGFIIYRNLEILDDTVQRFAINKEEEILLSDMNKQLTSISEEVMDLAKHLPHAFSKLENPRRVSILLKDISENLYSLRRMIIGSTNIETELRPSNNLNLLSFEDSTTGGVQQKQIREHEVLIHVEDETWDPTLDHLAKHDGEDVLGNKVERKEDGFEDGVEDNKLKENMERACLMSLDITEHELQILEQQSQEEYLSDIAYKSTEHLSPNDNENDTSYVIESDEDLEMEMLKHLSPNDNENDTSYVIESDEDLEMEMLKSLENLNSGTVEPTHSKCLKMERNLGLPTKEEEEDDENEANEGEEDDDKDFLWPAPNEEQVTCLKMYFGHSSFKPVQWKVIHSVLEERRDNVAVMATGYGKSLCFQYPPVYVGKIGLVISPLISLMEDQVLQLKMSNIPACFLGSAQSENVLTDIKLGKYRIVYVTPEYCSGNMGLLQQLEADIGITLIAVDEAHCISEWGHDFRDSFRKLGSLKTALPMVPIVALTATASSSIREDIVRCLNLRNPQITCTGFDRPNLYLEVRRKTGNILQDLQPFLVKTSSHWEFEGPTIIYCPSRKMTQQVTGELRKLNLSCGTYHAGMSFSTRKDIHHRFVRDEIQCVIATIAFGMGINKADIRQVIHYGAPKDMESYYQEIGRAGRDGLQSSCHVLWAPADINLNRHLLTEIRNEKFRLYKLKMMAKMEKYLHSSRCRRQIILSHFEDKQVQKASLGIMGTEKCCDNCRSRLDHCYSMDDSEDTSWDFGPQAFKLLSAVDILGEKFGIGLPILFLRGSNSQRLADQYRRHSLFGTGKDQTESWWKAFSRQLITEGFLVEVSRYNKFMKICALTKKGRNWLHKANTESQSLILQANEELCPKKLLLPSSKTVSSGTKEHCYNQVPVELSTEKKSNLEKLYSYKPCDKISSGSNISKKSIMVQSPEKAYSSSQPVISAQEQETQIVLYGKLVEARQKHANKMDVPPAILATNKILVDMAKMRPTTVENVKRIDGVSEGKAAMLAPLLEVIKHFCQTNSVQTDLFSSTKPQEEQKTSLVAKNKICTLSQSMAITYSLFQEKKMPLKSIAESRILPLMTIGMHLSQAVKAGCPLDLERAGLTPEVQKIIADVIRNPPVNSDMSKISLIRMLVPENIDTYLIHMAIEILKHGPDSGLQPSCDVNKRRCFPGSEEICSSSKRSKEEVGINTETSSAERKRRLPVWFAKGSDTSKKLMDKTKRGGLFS

Row | IC50 (recombinant human WRN; read-out: IC50) [nM] | SMILES | IC50 (RL95-2 cells) [nM] | IC50 (recombinant human WRN) [nM]
1 | 1 to 100 | CCc1c(N2CCN(C(=O)c3ncnc(C)c3O)CC2)c(=O)n2nc(-c3cc4ccccc4n3C)nc2n1CC(=O)Nc1ccc(C(F)(F)F)cc1Cl [Example 74, N-(2-chloro-4-(trifluoromethyl)phenyl)-2-(5-ethyl-6-(4-(5-hydroxy-6-methylpyrimidine-4-carbonyl)piperazin-1-yl)-2-(1-methyl-1H-indol-2-yl)-7-oxo-[1,2,4]triazolo[1,5-a]pyrimidin-4(7H)-yl)ac etamide] | 1 to 100 | 
2 | 1 to 100 | CCc1c(N2CCN(C(=O)c3ncnc(C)c3O)CC2)c(=O)n2nc(-c3ccc4ccoc4c3)nc2n1CC(=O)Nc1ccc(S(F)(F)(F)(F)F)cc1 [Example 77, 2-(2-(benzofuran-6-yl)-5-ethyl-6-(4-(5-hydroxy-6-methylpyrimidine-4-carbonyl)piperazin-1-yl)-7-oxo-[1,2,4]triazolo[1,5-a]pyrimidin-4(7H)-yl)-N-(4-(pentafluoro-λ^6-sulfaneyl)phenyl)acetamide] | 1 to 100 | 
3 | 1 to 100 | CCc1c(N2CCN(C(=O)c3ncnc(C)c3O)CC2)c(=O)n2nc(-c3ccc4c(c3)CCO4)nc2n1CC(=O)Nc1ccc(SC(F)(F)F)cc1F [Example 89, 2-(2-(2,3-Dihydrobenzofuran-5-yl)-5-ethyl-6-(4-(5-hydroxy-6-methylpyrimidine-4-carbonyl)piperazin-1-yl)-7-oxo-[1,2,4]triazolo[1,5-a]pyrimidin-4(7H)-yl)-N-(2-fluoro-4-((trifluoromethyl)thio)phenyl)acetamide] | 1 to 100 | 
4 | 1 to 100 | Cc1ncnc(C(=O)N2CCN(c3c(C4CC4)n(CC(=O)Nc4ccc(C(F)(F)F)cc4Cl)c4nc(-c5ccc6c(c5)CCO6)nn4c3=O)CC2)c1O [Example 152, N-(2-chloro-4-(trifluoromethyl)phenyl)-2-(5-cyclopropyl-2-(2,3-dihydrobenzofuran-5-yl)-6-(4-(5-hydroxy-6-methylpyrimidine-4-carbonyl)piperazin-1-yl)-7-oxo-[1,2,4]triazolo[1,5-a]pyrimidin-4 (7H)-yl)acetamide] | 1 to 100 | 
5 | 1 to 100 | CCc1c(N2CCN(C(=O)c3ncnc(C)c3O)CC2)c(=O)n2nc(C3=CC4CC4C3)nc2n1CC(=O)Nc1ccc(S(F)(F)(F)(F)F)cc1Cl (centres unmarked) [Example 167, 2-(2-(bicyclo[3.1.0]hex-2-en-3-yl)-5-ethyl-6-(4-(5-hydroxy-6-methylpyrimidine-4-carbonyl)piperazin-1-yl)-7-oxo-[1,2,4]triazolo[1,5-a]pyrimidin-4(7H)-yl)-N-(2-chloro-4-(pentafluoro-λ^6-sulfaneyl)phenyl)acetamide] | 1 to 100 | 
6 | 1 to 100 | CCc1c(N2CCN(C(=O)c3ncnc(C)c3O)CC2)c(=O)n2nc(/C=C/C(=O)N3CCC3)nc2n1CC(=O)Nc1ccc(C(F)(F)F)cc1Cl [Example 194, (E)-2-(2-(3-(azetidin-1-yl)-3-oxoprop-1-en-1-yl)-5-ethyl-6-(4-(5-hydroxy-6-methylpyrimidine-4-carbonyl)piperazin-1-yl)-7-oxo-[1,2,4]triazolo[1,5-a]pyrimidin-4(7H)-yl)-N-(2-chloro-4-(trifluor omethyl)phenyl)acetamide] |  | 
7 | 1 to 100 | CCc1c(N2CCN(C(=O)c3ncnc(C)c3O)CC2)c(=O)n2nc(C3=C[C@@H]4C[C@@H]4C3)nc2n1CC(=O)Nc1ccc(S(F)(F)(F)(F)F)cc1 [Example 195, 2-(2-((1R,5R)-bicyclo[3.1.0]hex-2-en-3-yl)-5-ethyl-6-(4-(5-hydroxy-6-methylpyrimidine-4-carbonyl)piperazin-1-yl)-7-oxo-[1,2,4]triazolo[1,5-a]pyrimidin-4(7H)-yl)-N-(4-(pentafluoro-λ6-sulfaneyl)phenyl)acetamide] |  | 

The next lines start with the molecule.

Row | SMILES | IC50 (recombinant human WRN; read-out: IC50) [nM] | IC50 (RL95-2 cells) [nM] | IC50 (recombinant human WRN) [nM]
8 | CCc1c(N2CCN(C(=O)c3ncnc(C)c3O)CC2)c(=O)n2nc(C3=CCCCOC3)nc2n1CC(=O)Nc1ccc(C(F)(F)F)cc1Cl [Example 62, N-(2-chloro-4-(trifluoromethyl)phenyl)-2-(5-ethyl-6-(4-(5-hydroxy-6-methylpyrimidine-4-carbonyl)piperazin-1-yl)-7-oxo-2-(2,5,6,7-tetrahydrooxepin-3-yl)-[1,2,4]triazolo[1,5-a]pyrimidin-4(7H) -yl)acetamide] | 1 to 100 | 1 to 100 | 
9 | CCc1c(N2CCN(C(=O)c3ncnc(C)c3O)CC2)c(=O)n2nc(C3=CCCCOC3)nc2n1CC(=O)Nc1ccc(S(F)(F)(F)(F)F)cc1 [Example 63, 2-(5-ethyl-6-(4-(5-hydroxy-6-methylpyrimidine-4-carbonyl)piperazin-1-yl)-7-oxo-2-(2,5,6,7-tetra hydrooxepin-3-yl)-[1,2,4]triazolo[1,5-a]pyrimidin-4(7H)-yl)-N-(4-(pentafluoro-λ^6-sulfaneyl)phenyl)acetamide] | 1 to 100 | 1 to 100 | 
10 | CCc1c(N2CCN(C(=O)c3ncnc(C)c3O)CC2)c(=O)n2nc(C3=CCC4(CC3)COC4)nc2n1CC(=O)Nc1ccc(C(F)(F)F)cc1Cl [Example 65, N-(2-chloro-4-(trifluoromethyl)phenyl)-2-(5-ethyl-6-(4-(5-hydroxy-6-methylpyrimidine-4-carbonyl)piperazin-1-yl)-7-oxo-2-(2-oxaspiro[3.5]non-6-en-7-yl)-[1,2,4]triazolo[1,5-a]pyrimidin-4(7H)-yl)acetamide] | 1 to 100 | 1 to 100 | 
11 | CCc1c(N2CCN(C(=O)c3ncnc(C)c3O)CC2)c(=O)n2nc(C3=CC4CC4C3)nc2n1CC(=O)Nc1ccc(S(F)(F)(F)(F)F)cc1 (centres unmarked) [Example 66, 2-(2-(Bicyclo[3.1.0]hex-2-en-3-yl)-5-ethyl-6-(4-(5-hydroxy-6-methylpyrimidine-4-carbonyl)piperazin-1-yl)-7-oxo-[1,2,4]triazolo[1,5-a]pyrimidin-4(7H)-yl)-N-(4-(pentafluoro-λ^6-thiol)phenyl)acetamide] | < 1 | 1 to 100 | 
12 | CCc1c(N2CCN(C(=O)c3ncnc(C)c3O)CC2)c(=O)n2nc(-c3cccc4ccoc34)nc2n1CC(=O)Nc1ccc(C(F)(F)F)cc1Cl [Example 69, 2-(2-(benzofuran-7-yl)-5-ethyl-6-(4-(5-hydroxy-6-methylpyrimidine-4-carbonyl)piperazin-1-yl)-7-oxo-[1,2,4]triazolo[1,5-a]pyrimidin-4(7H)-yl)-N-(2-chloro-4-(trifluoromethyl)phenyl)acetamide] | < 1 | 1 to 100 | 
13 | CCc1c(N2CCN(C(=O)c3ncnc(C)c3O)CC2)c(=O)n2nc(C3=CCCCCC3)nc2n1CC(=O)Nc1ccc(S(F)(F)(F)(F)F)cc1Cl [Example 70, N-(2-chloro-4-(pentafluoro-λ^6-sulfaneyl)phenyl)-2-(2-(cyclohept-1-en-1-yl)-5-ethyl-6-(4-(5-hydroxy-6-methylpyrimidine-4-carbonyl)piperazin-1-yl)-7-oxo-[1,2,4]triazolo[1,5-a]pyrimidin-4(7H) -yl)acetamide] | 1 to 100 | 1 to 100 | 
14 | CCc1c(N2CCN(C(=O)c3ncccc3O)CC2)c(=O)n2nc(C3=CC4CC(=O)CC4C3)nc2n1CC(=O)Nc1ccc(S(F)(F)(F)(F)F)cc1 (centres unmarked) [Example 71, 2-(5-ethyl-6-(4-(3-hydroxypicolinoyl)piperazin-1-yl)-7-oxo-2-(5-oxo-1,3a,4,5,6,6a-hexahydropentalen-2-yl)-[1,2,4]triazolo[1,5-a]pyrimidin-4(7H)-yl)-N-(4-(pentafluoro-λ^6-sulfaneyl)phenyl)acetamide] | < 1 | 1 to 100 | 
15 | CCc1c(N2CCN(C(=O)c3ncnc(C)c3O)CC2)c(=O)n2nc(-c3cc4ccccc4[nH]3)nc2n1CC(=O)Nc1ccc(C(F)(F)F)cc1Cl [Example 73, N-(2-Chloro-4-(trifluoromethyl)phenyl)-2-(5-ethyl-6-(4-(5-hydroxy-6-methylpyrimidine-4-carbonyl)piperazin-1-yl)-2-(1H-indol-2-yl)-7-oxo-[1,2,4]triazolo[1,5-a]pyrimidin-4(7H)-yl)acetamide] | 1 to 100 | 1 to 100 | 
16 | CCc1c(N2CCN(C(=O)c3ncnc(C)c3O)CC2)c(=O)n2nc(C3=C[C@H]4C[C@H]4C3)nc2n1CC(=O)Nc1ccc(S(F)(F)(F)(F)F)cc1 [Example 196, 2-(2-((1S,5S)-bicyclo[3.1.0]hex-2-en-3-yl)-5-ethyl-6-(4-(5-hydroxy-6-methylpyrimidine-4-carbonyl)piperazin-1-yl)-7-oxo-[1,2,4]triazolo[1,5-a]pyrimidin-4(7H)-yl)-N-(4-(pentafluoro-λ6-sulfaneyl)phenyl)acetamide] |  |  | 1 to 100

Source: patent EP4800015A1, “AZABICYCLO DERIVATIVE AND PREPARATION METHOD THEREFOR, AND USE” (Zhejiang Hisun Pharmaceutical Co., Ltd., priority 2023, dated 2025)
